Data: patent US8278358B2, “Lipoic acid derivatives” (Omnica GmbH, priority 2006, dated 2012)

Assays:
[1] = Reducing power assay (reduction of Iron-III to Iron-II); type: biochemical
Experimental: The assay is based on the reduction of Iron-III to Iron-II. Results are expressed as % reduction when compared to the control which reduced all Iron-III at a concentration of 5 mg/mL.

[2] = Inhibition of the autooxidation of linoleic acid; type: biochemical; settings: 50° C., up to 72 hours
Experimental: As a positive control (full inhibition) 10 mM butyl-hydroxytoluene (BHT)/L was introduced. Each sample was prepared in 3 replicates. […] Each sample was prepared in 3 replicates. Samples were incubated with light protection at 50° C.

[3] = Stability in CaCo-2 incubation medium (Free and Total LA/DHLA in medium); type: in vitro ADME; settings: for Total LA in medium (after NaBH4 reduction) / Free LA in medium: 1 mg LA/ml or 1.46 mg LAORN/ml medium
Experimental: For stability investigations, the incubation medium was incubated at 37° C. for 1 hour. Thereafter, the medium was centrifuged and used for further analysis.

CaCo-2 cells = assay: CACO-2 absorption test (Free and Total LA/DHLA in cells); type: in vitro ADME
[4] = Protection of lutein esters, milling/mixing method, 60° C. for 4 hours; type: physicochemical; settings: mix method
Experimental: 300 mg lutein esters and 30 mg α-Tocopherol were added to a mortar, completely milled and maintained at a temperature of 60° C. for 4 hours. The lutein content was measured with the UV-Visible spectrophotometric method as described above. […] The lutein content was measured with a UV-Visible spectrophotometer as described above. 300 mg lutein esters and a predetermined amount of lipoic acid were placed in a mortar, milled and then subjected to an elevated temperature of 60° C. for 4 hours. The lutein content was determined by the UV-Visible spectrophotometric method described above.

Row | Total LA in medium (after NaBH4 reduction) ([3]; 60 min) | Free LA in medium ([3]; 60 min, 37° C.) [mg/mL] | Free LA in medium ([3]; Initial) [mg/mL] | Total LA in medium (after NaBH4 reduction) ([3]; Initial) | stability under the test assay conditions ([3]; incubation medium, 37° C., 1 hour, recovery after reduction to DHLA) | Total LA in cells (after NaBH4 reduction) (CaCo-2 cells; CaCo-2 cells incubated 30 min) | Total LA in cells (after NaBH4 reduction) (CaCo-2 cells; CaCo-2 cells incubated 60 min) | Residual Ratio/% of lutein esters ([4]; 300 mg lutein esters, Dosage of LA 3 mg, Content of LA 1.0%) [%] | Residual Ratio/% of lutein esters ([4]; Dosage of LA 15 mg, Content of LA 4.8%) [%] | Residual Ratio/% of lutein esters ([4]; Dosage of LA 30 mg, Content of LA 9.1%) [%] | Residual Ratio/% of lutein esters ([4]; Dosage of LA 60 mg, Content of LA 16.7%) [%] | Residual Ratio/% of lutein esters ([4]; Dosage of LA 150 mg, Content of LA 33.3%) [%] | Residual Ratio/% of lutein esters ([4]; Dosage of LA 300 mg, Content of LA 50.0%) [%] | Structure (SMILES) | % Reduction compared to Control ([1]; Conc. 1 mg/mL) [%] | % Reduction compared to Control ([1]; Conc. 5 mg/mL) [%] | % Reduction compared to Control ([1]; Conc. 10 mg/mL) [%] | protection against autooxidation of linoleic acid ([2]; FIG. 7: 5 mM LA/L, 5 mM ORN/L, 5 mM LA/L + 5 mM ORN/L, 10 mM LAORN/L) | protection against autooxidation of linoleic acid ([2]; FIG. 8: 50 mM LA/L, 50 mM ORN/L, 50 mM LA/L + 50 mM ORN/L, 100 mM LAORN/L)
1 | – | – | – | – | – | – | – | – | – | – | – | – | – | [BH4-].[Na+] [Control, NaBH4] | 22.7 | 100.0 | 100.0 | – | –
2 | bld | 0.74 | 0.89 | bld | stable | bld | bld | 42.7 | 46.5 | 79.5 | 80.1 | 79.4 | 82.4 | O=C(O)CCCCC1CCSS1 (stereo not drawn) [LA, 1,2-dithiolane-3-pentanoic acid] | 7.2 | 22.2 | 24.7 | full protection | full protection
